Values quoted from earlier work as cited in patent US20260245667A1, “EFFICIENT DETECTION OF DECENTRALIZED BIOMARKERS OF GROUPS OF DNA SEQUENCES IN MICROBIOME DNA” (ALPHABIOME AI LTD, priority 2023, published 2026).

Tests used:
[1] = tested on: methane emissions
[2] = tested on: ruminal methane production; conditions: meta-analyses

SMILES	mitigation of methane emissions in vitro ([1]; in vitro)	levels of propionate and butyrate ([1]; partial incubation periods)	methanogenesis inhibition, reduction on average in dairy [2]
C=CCS[S+]([O-])CC=C (stereo not drawn) [Allicin]	up to 38%	elevate	–
CC[C@@]1([C@@H]2O[C@@H]([C@H]3O[C@@](O)(CO)[C@H](C)C[C@@H]3C)C[C@@H]2C)CC[C@H]([C@]2(C)CC[C@]3(C[C@H](O)[C@@H](C)[C@@H]([C@@H](C)[C@@H](OC)[C@H](C)C(=O)O)O3)O2)O1 [Monensin]	–	–	up to 10%
